Data set [1] deals with U87 cells. The experiment in a line: MTT cell growth inhibition (GI50), U87. Format: cell-based, human. To be noted: 3 days. The protocol: (§1) The drug concentration required to block net cell growth by 50% relative to a control sample is measured as the GI50. The GI50s for several of the compounds of the application were assayed as described.
(§2) MTT assay: U87 and GL261 cells were seeded in 96-well plate (6×10^3 cells in 100 μl of DMEM+10% FBS media per well) and incubated overnight at 37° C. with 5% CO2. All test compounds were diluted (10 point 2-fold serial dilution) in a separate 96-well plate to yield 10× of final concentrations (0.5-256 nM). A volume of 11 μl of 10× dilutions was added to appropriate wells (n=3). To value (reflecting the starting number of cells upon drug treatment) was determined by following steps as described below. After 3 days incubation at 37° C. with 5% CO2, 10 μl of MTT solution (5 mg/ml in PBS) was added to each well and plates were incubated at 37° C. for 3 h to allow MTT to form formazan crystals by reacting with metabolically active cells. 100 μl of 20% SDS was added to each well and plates were incubated overnight at 37° C. with 5% CO2. Afterward, OD570 was measured using microplate reader. The cell growth percentage of control was calculated according to percentage of control=(T−T0)/(C−T0)×100% or OD value of the test well exposure to test drug—OD value at time zero/(OD of the control well without drug treatment−OD value at time zero)×100%. Growth inhibition curves and GI50 were determined using GraphPad Prism 5 software.

The test system of data set [2] is GL261 cells. The data set can be described thus: MTT cell growth inhibition (GI50), GL261. Format: cell-based, murine. The note with it: 3 days. The protocol:
as §1, §2

Data set [3] in a line: Brain permeability (brain:plasma ratio). Format: in vivo. The note with it: read-out: Brain:Plasma (B:P) Average. On the procedure: Brain permeability can be measured by various methods known in the art. For example, brain permeability can be measured by calculating the ratio between the concentration of a compound of the application in the brain and the concentration of the compound in the plasma (i.e., BP ratio). In one aspect, a compound of the application has a B:P ratio of at least 1.0, 1.1, 1.2, 1.3, 1.4, 1.5, 1.6, 1.7, 1.8, 1.9, or 2.0 at 1 hour after administration of the compound to a subject. In one aspect, a compound of the application has a B:P ratio of at least 1.5, 1.6, 1.7, 1.8, 1.9, or 2.0 at 1 hour after administration of the compound to a subject. In one aspect, a compound of the application has a B:P ratio of at least 1.4, 1.5, 1.6, 1.7, 1.8, 1.9, 2.0, 2.1, 2.2, or 2.3 at 2 hours after administration of the compound to a subject. In one aspect, a compound of the application has a B:P ratio of at least 1.9, 2.0, 2.1, 2.2, or 2.3 at 2 hours after administration of the compound to a subject. In one aspect, a compound of the application has a B:P ratio of at least 1.7, 1.8, 1.9, 2.0, 2.1, 2.2, 2.3, 2.4, or 2.5 at 4 hours after administration of the compound to a subject. In one aspect, a compound of the application has a B:P ratio of at least 2.2, 2.3, 2.4, or 2.5 at 4 hours after administration of the compound to a subject.

Data set [4] can be described thus: Pharmacokinetic properties after IV and PO administration. Format: in vivo.
[5] abbreviates: in vivo, IV Administration (5 mg/kg).

Values joined by “and” are separate entries in the source; they are usually repeats but may differ in a detail not shown here. Equal values may be shown once.

Regarding `C[C@H]1CN(c2ccc(-c3ccc(CC(=O)NCc4cccc(F)c4)nc3)cc2)CCO1` [Compound 100], the 50% growth inhibitory concentration (GI50) (in general, the concentration at which growth is held to half of that of the control) in data set [1] was 151 nM; in data set [1] (Homo sapiens, U-87 MG, 72 h) it was 203 nM; in data set [2] it was 127 nM; in data set [2] (Mus musculus, GL261, 72 h), 129 nM.
As to `C[C@@H]1CN(c2ccc(-c3ccc(CC(=O)NCc4cccc(F)c4)nc3)cc2)CCO1` [Compound 101], the concentration for 50% growth inhibition (GI50) worked out at 96 nM in data set [1] (Homo sapiens, U-87 MG, 72 h) and 76 nM in data set [2] (Mus musculus, GL261, 72 h).
With `C[C@H]1COCCN1c1ccc(-c2ccc(CC(=O)NCc3cccc(F)c3)nc2)cc1` [Compound 102], the 50% growth inhibitory concentration (GI50) in data set [1] came to 37 nM; in data set [1] (Homo sapiens, U-87 MG, 72 h) it was 25 nM; in data set [2], 42 nM; in data set [2] (Mus musculus, GL261, 72 h), 24 nM.
With `C[C@@H]1COCCN1c1ccc(-c2ccc(CC(=O)NCc3cccc(F)c3)nc2)cc1` [Compound 103], the GI50 in data set [1] (Homo sapiens, U-87 MG, 72 h) came out at 146 nM; in data set [2] (Mus musculus, GL261, 72 h) it was 113 nM.
Turning to `Cc1cc(N2CCOC[C@H]2C)ccc1-c1ccc(CC(=O)NCc2ccccc2)nc1` [Compound 105], the GI50 amounted to 12.2 nM in data set [1]; 10.8 nM in data set [1] (Homo sapiens, U-87 MG, 72 h); 6.9 nM in data set [2]; 5.7 nM in data set [2] (Mus musculus, GL261, 72 h).
On to `Cc1cc(N2CCOC[C@@H]2C)ccc1-c1ccc(CC(=O)N[C@@H]2CCc3ccccc32)nc1` [Compound 107], for which the 50% growth inhibitory concentration (GI50) came to 23.4 nM in data set [1]; 22.1 nM in data set [1] (Homo sapiens, U-87 MG, 72 h); 28.3 nM in data set [2]; 19.4 nM in data set [2] (Mus musculus, GL261, 72 h).
Consider `Cc1cc(CC(=O)NCc2cccc(F)c2)ncc1-c1ccc(N2CCOC[C@@H]2C)cc1` [Compound 109], for which the concentration for 50% growth inhibition (GI50) was above 1020 nM in data set [1] (Homo sapiens, U-87 MG, 72 h) and above 1020 nM in data set [2] (Mus musculus, GL261, 72 h).
For the compound `Cc1cc(CC(=O)NCc2cccc(F)c2)ncc1-c1ccc(N2CCOC[C@H]2C)cc1` [Compound 110], the 50% growth inhibitory concentration (GI50) is above 1020 nM in data set [1] (Homo sapiens, U-87 MG, 72 h) and above 1020 nM in data set [2] (Mus musculus, GL261, 72 h).
In the case of `Cc1cc(CC(=O)NCc2ccccc2)ncc1-c1ccc(N2CCOC[C@@H]2C)cc1` [Compound 111], the 50% growth inhibitory concentration (GI50) turned out to be 224 nM in data set [1]; 239 nM in data set [1] (Homo sapiens, U-87 MG, 72 h); 170 nM in data set [2]; 195 nM in data set [2] (Mus musculus, GL261, 72 h).
The corresponding values for `Cc1cc(CC(=O)NCc2ccccc2)ncc1-c1ccc(N2CCOC[C@H]2C)cc1` [Compound 112] are 401 nM, 352 nM, 240 nM and 210 nM.
For `Cc1nc(CC(=O)NCc2cccc(F)c2)ccc1-c1ccc(N2CCOC[C@H]2C)cc1` [Compound 114], the 50% growth inhibitory concentration (GI50) in data set [2] amounted to 500 nM; in data set [2] (Mus musculus, GL261, 72 h), 340 nM.
On to `Cc1nc(CC(=O)NCc2ccccc2)ccc1-c1ccc(N2CCOC[C@@H]2C)cc1` [Compound 115], for which the concentration for 50% growth inhibition (GI50) in data set [1] is 15 nM and 15.6 nM; in data set [1] (Homo sapiens, U-87 MG, 72 h), 30 nM.
Take `Cc1nc(CC(=O)NCc2ccccc2)ccc1-c1ccc(N2CCOC[C@H]2C)cc1` [Compound 116]: the concentration for 50% growth inhibition (GI50) in data set [1] was 115 nM and 98 nM; in data set [1] (Homo sapiens, U-87 MG, 72 h), 120 nM; in data set [2] it was 90 nM and 74 nM; in data set [2] (Mus musculus, GL261, 72 h), 110 nM.
For `Cc1cc(N2CCOC[C@@H]2C)ccc1-c1ccc(CC(=O)NCc2ccncc2)nc1` [Compound 117], the concentration for 50% growth inhibition (GI50) in data set [1] (Homo sapiens, U-87 MG, 72 h) is above 729 nM; in data set [2], 387 nM; in data set [2] (Mus musculus, GL261, 72 h), 488 nM.
`Cc1cc(N2CCOC[C@@H]2C)ccc1-c1ccc(CC(=O)NCc2cccnc2)nc1` [Compound 118]: the GI50 in data set [1] (Homo sapiens, U-87 MG, 72 h) was found to be 621 nM; in data set [2] (Mus musculus, GL261, 72 h) it was 262 nM.
Consider `Cc1cc(N2CCOC[C@@H]2C)ccc1-c1ccc(CC(=O)NCc2ccccn2)nc1` [Compound 119], for which the GI50 is 233 nM and 224 nM in data set [1]; 129 nM in data set [1] (Homo sapiens, U-87 MG, 72 h); 216 nM and 139 nM in data set [2]; 164 nM in data set [2] (Mus musculus, GL261, 72 h).
For the compound `Cc1cc(N2CCOC[C@@H]2C)ccc1-c1ccc(CC(=O)NCc2ccccc2F)nc1` [Compound 120], the Kp at 0.25 h in data set [3] (time point 0.25 h) turned out to be 1.24. The Kp at 0.5 h in data set [3] (time point 0.5 h) was found to be 1.39. The Kp at 1 h in data set [3] (time point 1 h) is 1.72. For the same compound, the Kp at 2 h in data set [3] (time point 2 h) stood at 1.38. Besides, the Kp at 4 h in data set [3] (time point 4 h) was found to be 1.04. The Kp at 6 h in data set [3] (time point 6 h) was determined as 0.82. In addition, the Kp at 8 h in data set [3] (time point 8 h) stood at 1.12. The GI50 was 22.3 nM and 18.4 nM and 17.7 nM and 18.6 nM in data set [1]; 20.2 nM in data set [1] (Homo sapiens, U-87 MG, 72 h); 13.6 nM and 18.9 nM and 15.8 nM and 13.4 nM and 10.7 nM in data set [2]; 17 nM in data set [2] (Mus musculus, GL261, 72 h). For the same compound, in data set [4] (IV Administration (5 mg/kg)), the “AUCIV (dose-normalized)” value stood at 188 kg·ng·h/mL/mg. The t0.5 in data set [4] (IV Administration (5 mg/kg)) is recorded as 0.663 h. For the same compound, the “F (%) = 100 × AUCpo/AUCIV” value in data set [4] (PO 20 mg/kg vs IV 5 mg/kg) was 40.9%. For the same compound, in data set [4] (PO Administration (20 mg/kg)), the “AUCPO (dose-normalized)” value was 76.8 kg·ng·h/mL/mg. In addition, the C0 in data set [4] (setting [5]) is 1590 ng/mL. This compound had a clearance in data set [4] (setting [5]) of 88.7 mL/min/kg. For the same compound, the Vd in data set [4] (in vivo, IV Administration (5 mg/kg), read-out: Vss) amounted to 3.63 L/kg. The peak concentration (Cmax) (commonly the maximum level reached in the sampled fluid or tissue) in data set [4] (in vivo, PO Administration (20 mg/kg)) is 798 ng/mL.
In the case of `Cc1cc(N2CCOC[C@@H]2C)ccc1-c1ccc(CC(=O)NCc2ccc(C#N)cc2)nc1` [Compound 122], the 50% growth inhibitory concentration (GI50) in data set [1] turned out to be 17.3 nM; in data set [1] (Homo sapiens, U-87 MG, 72 h), 24.7 nM; in data set [2], 18.9 nM; in data set [2] (Mus musculus, GL261, 72 h) it was 13.8 nM.
In the case of `Cc1cc(N2CCOC[C@@H]2C)ccc1-c1ccc(CC(=O)NCc2ccccc2C#N)nc1` [Compound 123], the GI50 in data set [1] (Homo sapiens, U-87 MG, 72 h) is 473 nM; in data set [2] (Mus musculus, GL261, 72 h) it was 456 nM.
In the same order, the values of `Cc1cc(N2CCOC[C@@H]2C)ccc1-c1ccc(CC(=O)NCc2cccc(C#N)c2)nc1` [Compound 124] are 860 nM and 1030 nM.
In the case of `COc1ccccc1CNC(=O)Cc1ccc(-c2ccc(N3CCOC[C@@H]3C)cc2C)cn1` [Compound 125], the GI50 amounted to 230 nM in data set [1]; 195 nM in data set [1] (Homo sapiens, U-87 MG, 72 h); 158 nM in data set [2]; 140 nM in data set [2] (Mus musculus, GL261, 72 h).
The corresponding values for `COc1cc(N2CCOC[C@@H]2C)ccc1-c1ccc(CC(=O)NCc2ccccc2)nc1` [Compound 126] are 46 nM, 41.9 nM, 38.6 nM and 47.9 nM.
Consider `COc1cc(N2CCOC[C@@H]2C)ccc1-c1ccc(CC(=O)NCc2ccccc2F)nc1` [Compound 127], for which the 50% growth inhibitory concentration (GI50) in data set [1] (Homo sapiens, U-87 MG, 72 h) turned out to be 269 nM; in data set [2] (Mus musculus, GL261, 72 h), 207 nM.
Take `COc1cc(N2CCOC[C@@H]2C)ccc1-c1ccc(CC(=O)NCc2cccc(F)c2)nc1` [Compound 128]: the concentration for 50% growth inhibition (GI50) in data set [1] (Homo sapiens, U-87 MG, 72 h) came to 377 nM; in data set [2] (Mus musculus, GL261, 72 h), 303 nM.
Take `COc1cc(N2CCOC[C@@H]2C)ccc1-c1ccc(CC(=O)NCc2ccc(F)cc2)nc1` [Compound 129]: the GI50 in data set [1] came out at 38.1 nM; in data set [1] (Homo sapiens, U-87 MG, 72 h) it was 36 nM; in data set [2] it was 30.3 nM; in data set [2] (Mus musculus, GL261, 72 h), 51.7 nM.
On to `COc1cc(N2CCOC[C@@H]2C)ccc1-c1ccc(CC(=O)NCc2ccc(C#N)cc2)nc1` [Compound 130], for which the 50% growth inhibitory concentration (GI50) in data set [1] amounted to 135 nM; in data set [1] (Homo sapiens, U-87 MG, 72 h), 104 nM; in data set [2], 107 nM; in data set [2] (Mus musculus, GL261, 72 h), 111 nM.

For the origin of these results see patent publication US20210196724A1, “BIARYL COMPOSITIONS AND METHODS FOR MODULATING A KINASE CASCADE” (Athenex, Inc., priority 2016, published 2021).
